Reference: ChEMBL document CHEMBL1141845, “A new bistetrahydrofuran acetogenin from the roots of Annona salzmanii” (J Nat Prod, 1999)

Columns and labels:
[1] = Cytotoxicity against african green monkey Vero cells; format: cell-based; conditions: chlorocebus sabaeus, read-out: ED50 (the source's name)
[2] = tested on: KB; assay: Cytotoxicity against human KB cells; format: functional

For `CCCCCC[C@H](O)CCC[C@H](O)[C@H]1CC[C@@H]([C@H]2CC[C@H]([C@H](O)CC[C@H](O)CCCCCCCCCC3=C[C@H](C)OC3=O)O2)O1` [SALZMANIN], the CC50 [1] was > 0.01 µg/mL and the ED50 [2] was 0.1 ×10⁻⁴ ug/ml.

For `CCCCCC[C@H](O)CCC[C@H](O)[C@H]1CC[C@H]([C@H]2CC[C@H]([C@H](O)CCCCCCCCCCCCC3=C[C@H](C)OC3=O)O2)O1` [SQUAMOCIN], the ED50 [2] was 4 ×10⁻⁴ ug/ml.

`CC[C@]1(O)C[C@@H]2CN(CCc3c([nH]c4ccccc34)[C@@](C(=O)OC)(c3cc4c(cc3OC)N(C)[C@H]3[C@@](O)(C(=O)OC)[C@H](OC(C)=O)[C@]5(CC)C=CCN6CC[C@]43[C@@H]65)C2)C1` [VINBLASTINE] gave an ED50 [2] of 0.1 ×10⁻⁴ ug/ml.
